Test results as given in patent publication US8951529B2, “Methods of using small compounds to enhance myeloid derived suppressor cell function for treating autoimmune diseases” (Icahn School of Medicine at Mount Sinai, priority 2009, dated 2015).

Columns and labels:
[1] = system: DSS-induced colitis; test: DSS-induced colitis in vivo model; set-up: species or system C57BL/6 mice; conditions: day 11, in comparison with naive healthy mice, FIG. 5C
Text: In certain aspects, the invention is related to the treatment of IBDs. Mouse models of IBD are well known in the art, and may be used to model human IBDs. For example, dextran sodium sulfate (DSS) may be administered to mice to induce IBD. In this model, mice are fed with water containing 3.5% DSS from day 0 to day 11. Following treatment, mice develop colitis. The severity of colitis is quantified (assigned a clinical score) by assessing stool consistency, bleeding, and weight loss, which ranges from 0 (healthy) to 4 (maximal severity). Histologically, DSS produces submucosal erosions, ulceration, inflammatory cell infiltration and crypt abscess as well as epithelioglandular hyperplasia. […] [Kawada et al., 2007, World J. Gastroenterol. 13: 5581-5593; Okayasu et al., 1990, Gastroenterology 98:694-702]
For adoptive transfer of MDSCs, 5×10^6 purified MDSCs suspended in PBS were administered by intravenous infusion at day 0 and day 7.
Mice were left untreated or treated with sorted MDSCs (5×10^6 cells/mouse) alone or in combination with GA and/or SP600125 (Sigma-Aldrich), on the day of disease induction. […] The severity of colitis was quantitated as a clinical score by assessing stool consistency, bleeding, and weight loss, which ranges from 0 (healthy) to 4 (maximal severity). The clinical score (weight loss, stool consistency, and bleeding) of treated mice was assessed in a double-blind fashion.
On day 11 post-IBD induction, colon tissues from treated mice were removed, fixed in 3% formaldehyde, sectioned, and stained with H&E staining to determine the pathology score of colitis. To reflect the general condition of the mice, a disease activity index (DAI) was determined by an investigator blinded to the protocol by scoring the extent of body weight loss, stool guaiac positivity or gross bleeding, and stool consistency according to the method described in Murthy et al. (1993) “Treatment of Dextran Sulfate Sodium-Induced Murine Colitis by Intracolonic Cyclosporin,” Digest. […] Stool consistency and the degree of blood in stool were evaluated on the day when animals were killed. […]

[2] = system: Gr-1+/CD115+ MDSCs; test: HA-TCR T-cell proliferation with MDSCs and MAP kinase activator or inhibitors; format: cell-based, mouse; conditions: HA peptide, three days, viable T cell count, FIG. 13A
Protocol: To determine whether MAP kinase is involved in MDSC-mediated T cell suppression and Treg activation, monocytic MDSCs (Gr-1+/CD115+) were purified from spleen of tumor bearing mice and the suppressive function was evaluated. Purified T cells from HA-TCR transgenic T cells were cultured in the presence or absence of irradiated purified Gr-1+/CD115+ MDSCs from tumor-bearing mice, irradiated splenocytes from naïve mice as antigen presenting cells, anisomycin, various inhibitors, and HA peptide (0.5 μg/m1). Three days later, T cell proliferation was assessed by counting viable (trypan blue negative) total T cell number. Proliferation percentages were calculated by the number of experimental group divided by the number of T cell without MDSC, anisomycin or inhibitors (SB, PD). *p<0.05 by ANOVA t-test (FIG. 13A).

[3] = system: MDSCs; test: Foxp3 RT-PCR of MDSC-activated T regulatory cells with MAP kinase activator or inhibitors; format: cell-based, mouse; conditions: FIG. 13B
Protocol: The expression of Foxp3 and actin (as internal control) was determined by RT-PCR in MDSC-activated T regulatory cells in the presence of p38 MAP kinase activator, anisomycin, p38 MAP kinase inhibitor, SB, and Erk inhibitor, PD (FIG. 13B).

Row | Structure (SMILES) | decrease in colonic length [1] [%] | MDSC suppression of HA-TCR T-cell proliferation [2] | Treg induction by MDSCs as assessed by Foxp3 expression by RT-PCR [3]
1 | Oc1c2ccccc2c2c3c(cccc13)N=N2 [SP600125, 1,9-Pyrazoloanthrone] | 51.6 | – | –
2 | COc1cccc(-c2cc(=O)c3ccccc3o2)c1N [PD98059, 2-(2-Amino-3-methoxyphenyl)-4H-1-benzopyran-4-one] | – | not reverted or enhanced | not significantly different
3 | COc1ccc(C[C@H]2NC[C@H](O)[C@H]2OC(C)=O)cc1 [anisomycin] | – | reverted the suppressive activity | decreased Treg induction
4 | C[S+]([O-])c1ccc(-c2nc(-c3ccc(F)cc3)c(-c3ccncc3)[nH]2)cc1 (stereo not shown) [SB203580, 4-(4-Fluorophenyl)-2-(4-methylsulfinylphenyl)-5-(4-pyridyl)-1H-imidazole] | – | not reverted or enhanced | not significantly different
